In publication PMC5423244, “Synthesis and Biological Evaluation of N-(5-(pyridin-2-yl)-1,3,4-thiadiazol-2-yl)benzamide Derivatives as Lipoxygenase Inhibitor with Potential Anticancer Activity” (Iranian Journal of Pharmaceutical Research : IJPR, 2017) one finds inhibition data, which are given here for 9 compounds.

This test concerns the target T1, SLO; 15-lipoxygenase-1 (15-LOX-1) (Glycine max, UniProt P08170).
T1 construct: gene LOX1.1; SLO (abbreviation not spelt out); the introduction and aim speak of human 15-LO-1
T1 sequence (P08170 1-839): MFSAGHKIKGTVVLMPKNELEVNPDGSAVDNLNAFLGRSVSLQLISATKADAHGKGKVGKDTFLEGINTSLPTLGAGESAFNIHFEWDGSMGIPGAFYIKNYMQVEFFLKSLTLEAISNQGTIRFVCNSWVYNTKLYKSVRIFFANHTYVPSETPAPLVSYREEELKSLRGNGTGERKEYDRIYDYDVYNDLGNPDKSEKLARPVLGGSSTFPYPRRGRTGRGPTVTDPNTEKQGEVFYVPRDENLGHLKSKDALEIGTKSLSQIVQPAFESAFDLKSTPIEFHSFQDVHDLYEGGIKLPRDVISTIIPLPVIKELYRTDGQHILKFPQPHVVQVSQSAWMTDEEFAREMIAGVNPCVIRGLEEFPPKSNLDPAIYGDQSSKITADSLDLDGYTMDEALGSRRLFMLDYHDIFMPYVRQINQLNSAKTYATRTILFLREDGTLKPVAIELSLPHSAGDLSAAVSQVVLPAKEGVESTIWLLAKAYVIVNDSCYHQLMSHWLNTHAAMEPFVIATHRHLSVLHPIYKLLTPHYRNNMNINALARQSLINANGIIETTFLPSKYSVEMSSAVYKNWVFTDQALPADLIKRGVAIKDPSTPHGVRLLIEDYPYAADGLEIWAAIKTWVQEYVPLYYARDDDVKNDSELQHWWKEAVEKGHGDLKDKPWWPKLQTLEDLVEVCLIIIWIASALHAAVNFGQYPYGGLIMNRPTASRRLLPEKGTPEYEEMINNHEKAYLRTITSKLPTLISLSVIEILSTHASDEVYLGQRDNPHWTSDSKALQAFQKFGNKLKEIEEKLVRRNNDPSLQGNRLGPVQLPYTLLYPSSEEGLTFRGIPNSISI
Kind of test: linoleic acid hydroperoxide by MBTH/DMAB/hemoglobin colour reaction, […] nm. It counts as biochemical.
Consider `O=C(Nc1nnc(-c2ccccn2)s1)c1ccc(Cl)cc1` [4c, 4-Chloro-N-(5-(pyridin-2-yl)-1,3,4-thiadiazol-2-yl)benzamide], for which the inhibition at 200 µM was 12%. In turn, `O=C(Nc1nnc(-c2ccccn2)s1)c1cccc(Cl)c1` [4b, 3-Chloro-N-(5-(pyridin-2-yl)-1,3,4-thiadiazol-2-yl)benzamide] yielded an inhibition at 200 µM of 8%. The figure for `O=C(Nc1nnc(-c2ccccn2)s1)c1ccccc1Cl` [4a, 2-Chloro-N-(5-(pyridin-2-yl)-1,3,4-thiadiazol-2-yl)benzamide] is 8%; for `COc1ccc(C(=O)Nc2nnc(-c3ccccn3)s2)cc1` [4l, 4-Methoxy-N-(5-(pyridin-2-yl)-1,3,4-thiadiazol-2-yl)benzamide] it is 14%. `COc1ccccc1C(=O)Nc1nnc(-c2ccccn2)s1` [4j, 2-Methoxy-N-(5-(pyridin-2-yl)-1,3,4-thiadiazol-2-yl)benzamide]: the inhibition at 200 µM came out at 28%. On to `O=C(Nc1nnc(-c2ccccn2)s1)c1ccc(F)cc1` [4f, 4-Fluoro-N-(5-(pyridin-2-yl)-1,3,4-thiadiazol-2-yl)benzamide], for which the inhibition at 200 µM is 25%. Next, `O=C(Nc1nnc(-c2ccccn2)s1)c1cccc(F)c1` [4e, 3-Fluoro-N-(5-(pyridin-2-yl)-1,3,4-thiadiazol-2-yl)benzamide]: 13%. Next, `O=C(Nc1nnc(-c2ccccn2)s1)c1ccccc1F` [4d, 2-Fluoro-N-(5-(pyridin-2-yl)-1,3,4-thiadiazol-2-yl)benzamide]: 17%; `COc1cccc(C(=O)Nc2nnc(-c3ccccn3)s2)c1` [4k, 3-Methoxy-N-(5-(pyridin-2-yl)-1,3,4-thiadiazol-2-yl)benzamide]: 26%.
